# Test results published in PMC6264278, “Corydaline Inhibits Multiple Cytochrome P450 and UDP-Glucuronosyltransferase Enzyme Activities in Human Liver Microsomes” (Molecules, 2011).
# Biological target: T1, CYP2C8 (Homo sapiens, UniProt P10632)
# T1 construct: using pooled human liver microsomes; tissue BD Gentest Co. H161; host or cells: pooled human liver microsomes
# T1 sequence (P10632 1-490): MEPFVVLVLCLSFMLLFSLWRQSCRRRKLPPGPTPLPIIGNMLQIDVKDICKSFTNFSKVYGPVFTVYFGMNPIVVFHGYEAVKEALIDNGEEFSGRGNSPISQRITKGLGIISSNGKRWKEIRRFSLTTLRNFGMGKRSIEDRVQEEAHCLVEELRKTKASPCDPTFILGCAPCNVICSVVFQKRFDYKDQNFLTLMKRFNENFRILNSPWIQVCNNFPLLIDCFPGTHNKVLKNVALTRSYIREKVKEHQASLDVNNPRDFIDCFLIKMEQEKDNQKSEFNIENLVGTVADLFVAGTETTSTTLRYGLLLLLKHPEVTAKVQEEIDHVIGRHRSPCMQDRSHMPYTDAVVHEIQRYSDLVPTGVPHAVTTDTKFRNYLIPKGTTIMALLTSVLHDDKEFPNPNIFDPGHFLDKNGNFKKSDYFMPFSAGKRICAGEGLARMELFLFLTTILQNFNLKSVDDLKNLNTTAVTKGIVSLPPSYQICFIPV
# Assay: CYP2C8 amodiaquine N-deethylation inhibition, cocktail assay in pooled human liver microsomes
# Type: in vitro ADME
# Conditions: 2.5 μM amodiaquine, no inhibition at 200 μM of corydaline; for IC50 no preincubation, CYP2C8 amodiaquine N-deethylation: pooled human liver microsomes (H161)
# Method: Phenacetin O-deethylase, coumarin 7-hydroxylase, amodiaquine N-deethylase, diclofenac 4-hydroxylase, S-mephenytoin 4-hydroxylase, bufuralol hydroxylase, and midazolam 1’-hydroxylase activities were determined as probe activities for CYP1A2, CYP2A6, CYP2C8, CYP2C9, CYP2C19, CYP2D6, and CYP3A4, respectively, using cocktail incubation and liquid chromatography-tandem mass spectrometry (LC/MS/MS). The incubation mixtures were prepared in a total volume of 200 μL, as follows: pooled human liver microsomes (0.25 mg/mL), 1.3 mM NADPH, 3.3 mM MgCl2, 50 mM potassium phosphate buffer (pH 7.4), and a cocktail of probe substrates and various concentrations of corydaline (1−200 μM). The substrates were used at concentrations approximately equal to their respective Km values: 50 μM phenacetin, 2.5 μM coumarin, 2.5 μM amodiaquine, 10 μM diclofenac, 100 μM S-mephenytoin, 5 μM bufuralol, and 2.5 μM midazolam. After a 3-min pre-incubation period at 37 °C, the reactions were initiated by addition of an NADP generating system and incubated for 20 min at 37 °C in a shaking water bath. After incubation, the reaction was stopped by placement of the tubes on ice and addition of 100 μL of ice-cold methanol containing internal standards (^13C2,^15N-acetaminophen for acetaminophen and N-desethylamodiaquine, d5-7-hydroxycoumarin for 7-hydroxycoumarin, ^13C6-4-hydroxydiclofenac for 4-hydroxydiclofenac, d3-4-hydroxy-mephenytoin for 4-hydroxymephenytoin and hydroxymidazolam, d9-1-hydroxybufuralol for 1-hydroxybufuralol). The incubation mixtures were then centrifuged at 13,000 × g for 5 min. All incubations were performed in triplicate and the mean values were used. […] The reaction was started by addition of a cocktail of CYP probe substrates.
# All 7 metabolites produced from the cocktail of CYP isoform-specific substrates were simultaneously determined by LC/MS/MS [25]. […] Quantification was performed by selected reaction monitoring (SRM) of the [M+H]^+ ion and the related product ion for each metabolite. […]
smiles,measurement,setting,value
"COc1cc2c(cc1OC)C1C(C)c3ccc(OC)c(OC)c3CN1CC2 (stereo not drawn) [Corydaline, 2,3,9,10-tetramethoxy-13-methyl-5,8,13,13a-tetrahydro-6H-isoquino[3,2-a]isoquinoline]","IC50 no preincubation, CYP2C8 amodiaquine N-deethylation",,negligible inhibition
same,"IC50 no preincubation, CYP2C8 amodiaquine N-deethylation",listed as corydaline,No inhibition **
same,"IC50 with preincubation, CYP2C8 amodiaquine N-deethylation",pre-incubated 30 min with NADPH,No inhibition **
